Data reported in PubChem BioAssay AID1259407 (Chemical Carcinogenesis Research Information System (CCRIS), 2018).
Calls of active or inactive are those of the source. No rule for the calls is given here.

Tested on: CCRIS mutagenicity, Ames/micronucleus/aberration tests
Test: CCRIS mutagenicity studies
[1] = Test System: AMES SALMONELLA TYPHIMURIUM, Strain/Indicator: TA98, Metabolic Activation: HAMSTER, LIVER, S-9, AROCLOR 1254, Method: PREINCUBATION
[2] = Test System: AMES SALMONELLA TYPHIMURIUM, Strain/Indicator: TA98, Metabolic Activation: NONE, Method: PREINCUBATION
[3] = Test System: AMES SALMONELLA TYPHIMURIUM, Strain/Indicator: TA98, Metabolic Activation: RAT, LIVER, S-9, AROCLOR 1254, Method: PREINCUBATION
[4] = Test System: AMES SALMONELLA TYPHIMURIUM, Strain/Indicator: TA100, Metabolic Activation: HAMSTER, LIVER, S-9, AROCLOR 1254, Method: PREINCUBATION
[5] = Test System: AMES SALMONELLA TYPHIMURIUM, Strain/Indicator: TA100, Metabolic Activation: NONE, Method: PREINCUBATION
[6] = Test System: AMES SALMONELLA TYPHIMURIUM, Strain/Indicator: TA100, Metabolic Activation: RAT, LIVER, S-9, AROCLOR 1254, Method: PREINCUBATION
[7] = Test System: AMES SALMONELLA TYPHIMURIUM, Strain/Indicator: TA1535, Metabolic Activation: HAMSTER, LIVER, S-9, AROCLOR 1254, Method: PREINCUBATION
[8] = Test System: AMES SALMONELLA TYPHIMURIUM, Strain/Indicator: TA1535, Metabolic Activation: NONE, Method: PREINCUBATION
[9] = Test System: AMES SALMONELLA TYPHIMURIUM, Strain/Indicator: TA1535, Metabolic Activation: RAT, LIVER, S-9, AROCLOR 1254, Method: PREINCUBATION
[10] = Test System: AMES SALMONELLA TYPHIMURIUM, Strain/Indicator: TA100, Metabolic Activation: NONE, Method: STANDARD PLATE
[11] = Test System: AMES SALMONELLA TYPHIMURIUM, Strain/Indicator: TA98, Metabolic Activation: NONE, Method: STANDARD PLATE
[12] = Test System: AMES SALMONELLA TYPHIMURIUM, Strain/Indicator: TA98, Metabolic Activation: RAT, LIVER, S-9, AROCLOR 1254, Method: STANDARD PLATE
[13] = Test System: AMES SALMONELLA TYPHIMURIUM, Strain/Indicator: TA100, Metabolic Activation: RAT, LIVER, S-9, AROCLOR 1254, Method: STANDARD PLATE
[14] = Test System: AMES SALMONELLA TYPHIMURIUM, Strain/Indicator: TA1535, Metabolic Activation: NONE, Method: STANDARD PLATE
[15] = Test System: AMES SALMONELLA TYPHIMURIUM, Strain/Indicator: TA1535, Metabolic Activation: RAT, LIVER, S-9, AROCLOR 1254, Method: STANDARD PLATE
[16] = Test System: AMES SALMONELLA TYPHIMURIUM, Strain/Indicator: TA1537, Metabolic Activation: NONE, Method: STANDARD PLATE
[17] = Test System: AMES SALMONELLA TYPHIMURIUM, Strain/Indicator: TA1537, Metabolic Activation: RAT, LIVER, S-9, AROCLOR 1254, Method: STANDARD PLATE

Measured: mutagenic call

Nc1ccc(NCCO)c([N+](=O)[O-])c1
inactive: Test System: AMES SALMONELLA TYPHIMURIUM, Strain/Indicator: TA1535, Metabolic Activation: HAMSTER, LIVER, S-9, AROCLOR 1254 (10%), Method: PREINCUBATION inactive; negative | [7] inactive; negative | [8] inactive; negative | Test System: AMES SALMONELLA TYPHIMURIUM, Strain/Indicator: TA1535, Metabolic Activation: RAT, LIVER, S-9, AROCLOR 1254 (10%), Method: PREINCUBATION inactive; negative | [9] inactive; negative
active: Test System: AMES SALMONELLA TYPHIMURIUM, Strain/Indicator: TA97, Metabolic Activation: HAMSTER, LIVER, S-9, AROCLOR 1254 (10%), Method: PREINCUBATION active; positive | Test System: AMES SALMONELLA TYPHIMURIUM, Strain/Indicator: TA97, Metabolic Activation: HAMSTER, LIVER, S-9, AROCLOR 1254, Method: PREINCUBATION active; positive | Test System: AMES SALMONELLA TYPHIMURIUM, Strain/Indicator: TA97, Metabolic Activation: NONE, Method: PREINCUBATION active; positive | Test System: AMES SALMONELLA TYPHIMURIUM, Strain/Indicator: TA97, Metabolic Activation: RAT, LIVER, S-9, AROCLOR 1254 (10%), Method: PREINCUBATION active; positive | Test System: AMES SALMONELLA TYPHIMURIUM, Strain/Indicator: TA97, Metabolic Activation: RAT, LIVER, S-9, AROCLOR 1254, Method: PREINCUBATION active; positive | Test System: AMES SALMONELLA TYPHIMURIUM, Strain/Indicator: TA98, Metabolic Activation: HAMSTER, LIVER, S-9, AROCLOR 1254 (10%), Method: PREINCUBATION active; positive | [1] active; positive | [2] active; positive | Test System: AMES SALMONELLA TYPHIMURIUM, Strain/Indicator: TA98, Metabolic Activation: RAT, LIVER, S-9, AROCLOR 1254 (10%), Method: PREINCUBATION active; positive | [3] active; positive | Test System: AMES SALMONELLA TYPHIMURIUM, Strain/Indicator: TA100, Metabolic Activation: HAMSTER, LIVER, S-9, AROCLOR 1254 (10%), Method: PREINCUBATION active; positive | [4] active; positive | [5] active; positive | Test System: AMES SALMONELLA TYPHIMURIUM, Strain/Indicator: TA100, Metabolic Activation: RAT, LIVER, S-9, AROCLOR 1254 (10%), Method: PREINCUBATION active; positive | [6] active; positive

CCn1c2ccccc2c2cc(N)ccc21
inactive: [2] inactive; negative | [5] inactive; negative | [7] inactive; negative | [8] inactive; negative | [9] inactive; negative | Test System: AMES SALMONELLA TYPHIMURIUM, Strain/Indicator: TA1537, Metabolic Activation: NONE, Method: PREINCUBATION inactive; negative
active: [1] active; positive | [3] active; positive | [4] active; positive | [6] active; positive | Test System: AMES SALMONELLA TYPHIMURIUM, Strain/Indicator: TA1537, Metabolic Activation: HAMSTER, LIVER, S-9, AROCLOR 1254, Method: PREINCUBATION active; positive | Test System: AMES SALMONELLA TYPHIMURIUM, Strain/Indicator: TA1537, Metabolic Activation: RAT, LIVER, S-9, AROCLOR 1254, Method: PREINCUBATION active; positive

C[C@@H](Br)C(=O)NCc1ccccc1
active: [10] active; positive

CCOP(=O)(NC(C)C)Oc1ccccc1C(=O)OC(C)C (stereo unspecified)
active: [11] active; positive | Test System: AMES SALMONELLA TYPHIMURIUM, Strain/Indicator: TA98, Metabolic Activation: RAT, LIVER, S-9, Method: STANDARD PLATE active; positive
inactive: [10] inactive; negative | Test System: AMES SALMONELLA TYPHIMURIUM, Strain/Indicator: TA100, Metabolic Activation: RAT, LIVER, S-9, Method: STANDARD PLATE inactive; negative

CC(=O)OCc1ccc(N=Nc2ccc(N(C)C)cc2)cc1
active: Test System: AMES SALMONELLA TYPHIMURIUM, Strain/Indicator: TA98, Metabolic Activation: RAT, LIVER, S-9, POLYCHLORINATED BIPHENYLS, Method: PREINCUBATION active; positive | Test System: AMES SALMONELLA TYPHIMURIUM, Strain/Indicator: TA100, Metabolic Activation: RAT, LIVER, S-9, POLYCHLORINATED BIPHENYLS, Method: PREINCUBATION active; positive

Cc1ccc(S(=O)(=O)n2ncc(Cl)c(Cl)c2=O)cc1
inactive: [11] inactive; negative | [12] inactive; negative | [10] inactive; negative | [13] inactive; negative | [14] inactive; negative | [15] inactive; negative | [16] inactive; negative | [17] inactive; negative

O=C1CN(/N=C/C=C/c2ccc([N+](=O)[O-])o2)C(=O)N1
active: Test System: AMES SALMONELLA TYPHIMURIUM, Strain/Indicator: TA97, Metabolic Activation: NONE, Method: STANDARD PLATE active; positive | [11] active; positive | [10] active; positive | Test System: E. COLI WP2, Strain/Indicator: WP2, Metabolic Activation: NONE, Method: SPOT active; positive

C=C(C)C(=O)OCCCCC
inactive: [11] inactive; negative | [12] inactive; negative | Test System: AMES SALMONELLA TYPHIMURIUM, Strain/Indicator: TA98, Metabolic Activation: RAT, LIVER, S-9, SODIUM PHENOBARBITAL, Method: STANDARD PLATE inactive; negative | [10] inactive; negative | [13] inactive; negative | Test System: AMES SALMONELLA TYPHIMURIUM, Strain/Indicator: TA100, Metabolic Activation: RAT, LIVER, S-9, SODIUM PHENOBARBITAL, Method: STANDARD PLATE inactive; negative | [14] inactive; negative | [15] inactive; negative | Test System: AMES SALMONELLA TYPHIMURIUM, Strain/Indicator: TA1535, Metabolic Activation: RAT, LIVER, S-9, SODIUM PHENOBARBITAL, Method: STANDARD PLATE inactive; negative | [16] inactive; negative | [17] inactive; negative | Test System: AMES SALMONELLA TYPHIMURIUM, Strain/Indicator: TA1537, Metabolic Activation: RAT, LIVER, S-9, SODIUM PHENOBARBITAL, Method: STANDARD PLATE inactive; negative | Test System: AMES SALMONELLA TYPHIMURIUM, Strain/Indicator: TA1538, Metabolic Activation: NONE, Method: STANDARD PLATE inactive; negative | Test System: AMES SALMONELLA TYPHIMURIUM, Strain/Indicator: TA1538, Metabolic Activation: RAT, LIVER, S-9, AROCLOR 1254, Method: STANDARD PLATE inactive; negative | Test System: AMES SALMONELLA TYPHIMURIUM, Strain/Indicator: TA1538, Metabolic Activation: RAT, LIVER, S-9, SODIUM PHENOBARBITAL, Method: STANDARD PLATE inactive; negative
